{"source": "patent US6894075B2", "about": "“4′-demethyl-4′-O-substituted-1-deoxypodophyllotoxin derivative and geometric isomer thereof, process for the preparation thereof and anti-cancer composition comprising the same” (priority 2000, dated 2005)", "key": {"A549 cell": {"test_system": "A549 cell", "assay": "Cytotoxicity test (SRB method) for A549 cells", "assay_type": "cell-based, human", "settings": "for EC50: A549 human lung cancer cell, SRB, read-out: ED50(nM) for A549", "description": "Human lung carcinomas A549 and […] were used for determining cytotoxicity of the compounds of the present invention according to the Sulfrhodamine-B (SRB) method which was developed by NCI in 1989 in order to determine in vitro anticancer activity of drugs.\nCells to be used in the experiment were separated from a surface using 0.5% Trypsin-EDTA solution and suspended in a density of 5×10^4 cell/ml therein. The cell suspension was introduced into a 96-well plate in an amount of 180/well and incubated for 24 hours in a 5% CO2 incubator of 37° C. Samples were dissolved in dimethylsulfoxide and then diluted by water distilled in advance for three times just before the experiment. Forty-one (41) samples were prepared into 4 types of final concentrations, i.e., 0.1, 0.03, 0.01 and 0.003 mg per ml of the medium. The diluted sample solutions were added to the 96-well plate in the amount of 20 μl/well and incubated for 48 hours in a CO2 incubator of 37° C. At the time of adding the samples, Tz (Time zero) plate was taken. The medium was removed from the Tz plate and each of the plates after incubation were completed. Ten (10)% […] (TCA) was added in the amount of […], and allowed to stand for 1 hour at 4° C. to fix the cells on the bottom surface of the plate. After the cells were fixed, the plate was washed five to six times with water to completely remove the remaining TCA solution and then dried at room temperature to completely remove the moisture. To the fully dried plate was introduced a dye solution in the amount of […] in which 0.4% SRB was dissolved in 1% acetic acid solution. […] After the dyeing process, the plate was dried again at room temperature. 100 ml of 10 mM Tris solution was added thereto in order to dissolve the dye, and then O.D. (optical density) was determined by microplate reader at 520 nm.\nED50 values for cancer cells were calculated as follows. The amount of SRB protein was analyzed at the time when incubation started by the addition of the sample. This amount was named time zero (Tz). The O.D. value obtained from a group which was not treated by the sample was named Control group (C) and the O.D. value obtained from a group which was treated by the sample was named Test group (T).\nThe degree of cytotoxicity of the compounds was calculated from Tz, C and T values according to the following equation.\nThat is, in the case of Tz≧T, the degree was calculated by\n(T−Tz)/(C−Tz)×100(%), and\n• in the case of Tz<T, the degree was calculated by […].\nFrom the values thus obtained, ED50 value which is defined as the concentration at which growth of the cancer cell is inhibited by 50% was calculated using the regression function of Excel program."}, "[1]": {"test_system": "Lewis Lung Cancer Cell (LLC)", "assay": "Anti-cancer test for BDF1 mouse transplanted by Lewis Lung Cancer Cell, Experiment 2-1 (formulae 1a, 1b)", "assay_type": "in vivo", "settings": "peritoneal injection 0.06 mmole/kg/day at days 1, 2, 4, 7, 8 (etoposide 36 mg/kg), cancer volume at 14 to 16 days", "description": "In order to evaluate the anti-cancer activity of the compounds of the present invention, LLC, which is a lung cancer cell of mouse, was transplanted into the hypodermic region of BDF1 mouse to induce a solid cancer. […] Experiment for the compounds of formulae (1a) and (1b) and that for the compound of formula (1c) were separately carried out.\nMale BDF1 mouse (Weight 18 to 25 g), being in good health and purchased from Korea Biolink Co., was used as a test animal.\nThe mice were bred at a place controlled to the temperature of 23 to 24° C. while provided with water and feed ad libitum. As the feed, feed for mouse containing no antibiotics was used. The hypodermic tissue of C57BL/6 mouse, which includes cells cultured therein for 14 days, was taken up. Sterilized cold physiological saline was added to the tissue in the amount of 5 ml/g tissue to make a cell suspension. This cell suspension of 0.2 ml was transplanted into the hypodermic region of armpit of BDF1 mouse.\n(§1) Each group includes 5 mice. After 24 hours from the transplantation, each test compound of formulae (1a) and (1b) was dissolved in 4% Tween 80 and injected peritoneally in the amount of 0.2 ml and in a concentration of 0.06 mmole/kg/day (that is, 0.06 mmole of each test compound was dissolved in 10 ml of 4% Tween 80, and then 0.2 ml of the resulting solution was peritoneally injected into a mouse). Only 4% Tween 80 was injected for the negative control group, and the same moles of etoposide (36 mg/kg) was injected for the positive control group. The injection was performed five times at 1, 2, 4, 7 and 8 days from the transplantation of cancer.\nThe anti-cancer effect was determined by measuring the volume of cancer of the control and test groups at 14 to 16 days from the administration of drugs and then calculated as follows. Volume of Cancer(mm^3)=Length(mm)×Width^2(mm^2)/2 Suppression Rate of Cancer Growth(%)=(C−T)×100(%)/C in which • C represents the average volume of cancer (mm^3) of the control group, and • T represents the average volume of cancer (mm^3) of the test group."}, "[2]": {"assay": "Weight change in the period of drug administration", "assay_type": "in vivo, mouse", "settings": "for Weight of mouse, Day 1: Day 1 from the cancer cell transplantation; for Weight of mouse, Day 2: Day 2 from the cancer cell transplantation; for Weight of mouse, Day 3: Day 3 from the cancer cell transplantation; for Weight of mouse, Day 4: Day 4 from the cancer cell transplantation; for Weight of mouse, Day 5: Day 5 from the cancer cell transplantation; for Weight of mouse, Day 6: Day 6 from the cancer cell transplantation; for Weight of mouse, Day 7: Day 7 from the cancer cell transplantation; for Weight of mouse, Day 8: Day 8 from the cancer cell transplantation", "protocol": "as §1\nAs an index of toxicity, the weight change during the period of drug administration was recorded for the compounds of formulae (1a) and (1b) compared with the comparison compound of Etoposide."}}, "note": "Where “and” joins values, the source holds several entries; their conditions need not be identical. Equal entries are not always repeated."}
{"compound": "COc1cc(C2c3cc4c(cc3CC3COC(=O)C32)OCO4)cc(OC)c1OC(=O)CCCCCCCN", "note": "(stereo not drawn) [Compound 1a-15, 4′-demethyl-4′-O-(8-aminooctanoyl)-1-deoxypodophyllotoxin]", "values": [{"measurement": "EC50", "setting": "A549 cell; 48 hours incubation", "result": 74.2, "unit": "nM"}, {"measurement": "Suppression Rate for LLC", "setting": "[1]", "result": 34.5, "unit": "%"}]}
{"compound": "COc1cc(C2c3cc4c(cc3CC3COC(=O)C32)OCO4)cc(OC)c1OC(=O)NC(C)C", "note": "(stereo not drawn) [Compound 1b-2, 4′-demethyl-4′-O-isopropylcarbamoyl-1-deoxypodophyllotoxin]", "values": [{"measurement": "Weight of mouse, Day 1", "setting": "[2]", "result": 22.8, "unit": "g"}, {"measurement": "Weight of mouse, Day 2", "setting": "[2]", "result": 23.6, "unit": "g"}, {"measurement": "Weight of mouse, Day 3", "setting": "[2]", "result": 23.2, "unit": "g"}, {"measurement": "Weight of mouse, Day 4", "setting": "[2]", "result": 25, "unit": "g"}, {"measurement": "Weight of mouse, Day 5", "setting": "[2]", "result": 25, "unit": "g"}, {"measurement": "Weight of mouse, Day 6", "setting": "[2]", "result": 26.1, "unit": "g"}, {"measurement": "Weight of mouse, Day 7", "setting": "[2]", "result": 26, "unit": "g"}, {"measurement": "Weight of mouse, Day 8", "setting": "[2]", "result": 26, "unit": "g"}, {"measurement": "EC50", "setting": "A549 cell; 48 hours incubation", "result": 153, "unit": "nM"}, {"measurement": "Suppression Rate for LLC", "setting": "[1]", "result": "90% and 90.1%"}]}
{"compound": "COc1cc(C2c3cc4c(cc3CC3COC(=O)C32)OCO4)cc(OC)c1OC(=O)NCCCl", "note": "(stereo not drawn) [Compound 1b-3, 4′-demethyl-4′-O-(2-chloroethylcarbamoyl)-1-deoxypodophyllotoxin]", "values": [{"measurement": "Weight of mouse, Day 1", "setting": "[2]", "result": 23.3, "unit": "g"}, {"measurement": "Weight of mouse, Day 2", "setting": "[2]", "result": 23, "unit": "g"}, {"measurement": "Weight of mouse, Day 3", "setting": "[2]", "result": 23.6, "unit": "g"}, {"measurement": "Weight of mouse, Day 4", "setting": "[2]", "result": 24.5, "unit": "g"}, {"measurement": "Weight of mouse, Day 5", "setting": "[2]", "result": 26, "unit": "g"}, {"measurement": "Weight of mouse, Day 6", "setting": "[2]", "result": 25, "unit": "g"}, {"measurement": "Weight of mouse, Day 7", "setting": "[2]", "result": 26, "unit": "g"}, {"measurement": "Weight of mouse, Day 8", "setting": "[2]", "result": 25.8, "unit": "g"}, {"measurement": "EC50", "setting": "A549 cell; 48 hours incubation", "result": 92, "unit": "nM"}, {"measurement": "Suppression Rate for LLC", "setting": "[1]", "result": 75, "unit": "%"}]}
{"compound": "COc1cc(C2c3cc4c(cc3CC3COC(=O)C32)OCO4)cc(OC)c1OC(=O)NC1CCCCC1", "note": "(stereo not drawn) [Compound 1b-4, 4′-demethyl-4′-O-cyclohexylcarbamoyl-1-deoxypodophyllotoxin]", "values": [{"measurement": "Weight of mouse, Day 1", "setting": "[2]", "result": 23, "unit": "g"}, {"measurement": "Weight of mouse, Day 2", "setting": "[2]", "result": 23.9, "unit": "g"}, {"measurement": "Weight of mouse, Day 3", "setting": "[2]", "result": 25, "unit": "g"}, {"measurement": "Weight of mouse, Day 4", "setting": "[2]", "result": 26, "unit": "g"}, {"measurement": "Weight of mouse, Day 5", "setting": "[2]", "result": 25, "unit": "g"}, {"measurement": "Weight of mouse, Day 6", "setting": "[2]", "result": 26, "unit": "g"}, {"measurement": "Weight of mouse, Day 7", "setting": "[2]", "result": 26, "unit": "g"}, {"measurement": "Weight of mouse, Day 8", "setting": "[2]", "result": 25.5, "unit": "g"}, {"measurement": "EC50", "setting": "A549 cell; 48 hours incubation", "result": 163, "unit": "nM"}, {"measurement": "Suppression Rate for LLC", "setting": "[1]", "result": 88, "unit": "%"}]}
{"compound": "COc1cc(C2c3cc4c(cc3CC3COC(=O)C32)OCO4)cc(OC)c1OC(=O)NCCO", "note": "(stereo not drawn) [Compound 1b-5, 4′-demethyl-4′-O-(2-hydroxyethyl)carbamoyl-1-deoxypodophyllotoxin]", "values": [{"measurement": "Weight of mouse, Day 1", "setting": "[2]", "result": 23.4, "unit": "g"}, {"measurement": "Weight of mouse, Day 2", "setting": "[2]", "result": 23.8, "unit": "g"}, {"measurement": "Weight of mouse, Day 3", "setting": "[2]", "result": 22.2, "unit": "g"}, {"measurement": "Weight of mouse, Day 4", "setting": "[2]", "result": 23.8, "unit": "g"}, {"measurement": "Weight of mouse, Day 5", "setting": "[2]", "result": 23.4, "unit": "g"}, {"measurement": "Weight of mouse, Day 6", "setting": "[2]", "result": 23.8, "unit": "g"}, {"measurement": "Weight of mouse, Day 7", "setting": "[2]", "result": 23, "unit": "g"}, {"measurement": "Weight of mouse, Day 8", "setting": "[2]", "result": 23.2, "unit": "g"}, {"measurement": "cytotoxicity compared with DPT", "setting": "A549 cell; A549, in words", "result": "stronger cytotoxicity than DPT"}, {"measurement": "EC50", "setting": "A549 cell; 48 hours incubation", "result": 61.5, "unit": "nM"}, {"measurement": "Suppression Rate for LLC", "setting": "[1]", "result": 95.1, "unit": "%"}]}
{"compound": "COc1cc([C@@H]2c3cc4c(cc3[C@@H](O[C@@H]3O[C@@H]5CO[C@@H](C)O[C@H]5[C@H](O)[C@H]3O)[C@H]3COC(=O)[C@H]23)OCO4)cc(OC)c1O", "note": "[Etoposide, reference compound]", "values": [{"measurement": "Weight of mouse, Day 1", "setting": "[2]", "result": 23, "unit": "g"}, {"measurement": "Weight of mouse, Day 2", "setting": "[2]", "result": 24, "unit": "g"}, {"measurement": "Weight of mouse, Day 3", "setting": "[2]", "result": 25.1, "unit": "g"}, {"measurement": "Weight of mouse, Day 4", "setting": "[2]", "result": 26, "unit": "g"}, {"measurement": "Weight of mouse, Day 5", "setting": "[2]", "result": 25.9, "unit": "g"}, {"measurement": "Weight of mouse, Day 6", "setting": "[2]", "result": 26.3, "unit": "g"}, {"measurement": "Weight of mouse, Day 7", "setting": "[2]", "result": 25.6, "unit": "g"}, {"measurement": "Weight of mouse, Day 8", "setting": "[2]", "result": 26.6, "unit": "g"}, {"measurement": "ED50(mg/mL) for A549", "setting": "A549 cell; A549, SRB, 48 hours incubation, Table 2", "result": 1.102, "unit": "mg/mL"}, {"measurement": "EC50", "setting": "A549 cell; 48 hours incubation", "result": 1990, "unit": "nM"}, {"measurement": "Suppression Rate for LLC", "setting": "[1]", "result": "90% and 90.8%"}]}
